# Measurements from patent publication US20240252502A1, “HDAC6 INHIBITORS FOR TREATMENT OF METABOLIC DISEASE AND HFPEF” (Tenaya Therapeutics, Inc., priority 2021, published 2024).
# Tested on: HFD/L-NAME mice (HFpEF model)
# Test: HFD/L-NAME HFpEF mouse model, TYA-11018 versus Empagliflozin
# Assay type: in vivo
# Conditions: 15 mg/kg TYA-11018 or 10 mg/kg Empagliflozin orally once daily for 9 weeks
# Experimental: After HFpEF phenotypes were established, mice received 15 mg/kg TYA-11018 or 10 mg/kg Empagliflozin, or vehicle orally once daily for 9 weeks. Health monitoring was performed weekly with body weights recorded. Glucose tolerance test was performed after 1st dose. Cardiac function was recorded by echocardiography after treatment for 9 weeks. End diastolic pressure (EDP) was measured by PV-Loop at terminal at 9 weeks after dosing.
# Animals: Cohort of mice with established HFpEF phenotypes and age/sex matched wild type controls were used for dosing study. […] After acclimation for 1 week, one group of mice was fed with high fat diet containing 0.07% L-NAME (LabDiet 5G5V, St Louis, MO) for 15 weeks. The control group of mice were fed with normal chow (LabDiet 5053, St Louis, MO). […] Animals were housed in an animal research facility in accordance with the National Research Council of the National Academies guidelines for the care and use of laboratory animals.
# A second group of mice was fed with standard chow for controls.
# Transthoracic echocardiography was performed using a VisualSonics Vevo 2100 system equipped with MS400 transducer (Visual Sonics, Toronto, ON). LVEF and other indices of systolic function were obtained from short-axis M-mode scans at the midventricular level, as indicated by the presence of papillary muscles, in conscious, gently restrained mice. […]
# Intraperitoneal glucose-tolerance tests were performed by injection of glucose (2 g/kg in saline) after 6 hour fasting (from 7 a.m. to 1 p.m.). Tail blood glucose levels (mg/dL) were measured by AimStrip Plus blood glucose strips used with the AimStrip Plus blood glucose monitoring system (Germaine Laboratories, San Antonio, TX) at 0 (baseline, before glucose dose), 15, 30, 45, 60 and 120 minutes after glucose administration.
# The trachea was exposed by a midline incision from the base of the throat to just above the clavicle. […] The hemodynamic parameters were then recorded in close-chest mode. […]
structure (smiles),measurement,setting,value
"OC[C@H]1O[C@@H](c2ccc(Cl)c(Cc3ccc(O[C@H]4CCOC4)cc3)c2)[C@H](O)[C@@H](O)[C@@H]1O [Empagliflozin, empagliflozin]",E/A,,decreased
same,E/e′ ratio,,decreased
same,end diastolic pressure,PV-Loop,reduced end diastolic pressure
